Experimental data as given in patent publication US20090137625A1, “Novel Enantiomers and Their Use as Monoamine Neurotransmitter Re-Uptake Inhibitors” (priority 2005, published 2009).
Structures can show the parent of a compound that is named as a salt. Where two headings read alike, the source gives them in different places.

Columns and labels:
[1] = target: T1, NA-uptake (reuptake of noradrenaline in synaptosomes) (Rattus norvegicus, UniProt Q9WTR4); test: Inhibition of noradrenaline (NA) reuptake in synaptosomes; format: biochemical
T1 construct: in synaptosomes as described in WO 97/16451; from tissue
T1 sequence (Q9WTR4 1-597): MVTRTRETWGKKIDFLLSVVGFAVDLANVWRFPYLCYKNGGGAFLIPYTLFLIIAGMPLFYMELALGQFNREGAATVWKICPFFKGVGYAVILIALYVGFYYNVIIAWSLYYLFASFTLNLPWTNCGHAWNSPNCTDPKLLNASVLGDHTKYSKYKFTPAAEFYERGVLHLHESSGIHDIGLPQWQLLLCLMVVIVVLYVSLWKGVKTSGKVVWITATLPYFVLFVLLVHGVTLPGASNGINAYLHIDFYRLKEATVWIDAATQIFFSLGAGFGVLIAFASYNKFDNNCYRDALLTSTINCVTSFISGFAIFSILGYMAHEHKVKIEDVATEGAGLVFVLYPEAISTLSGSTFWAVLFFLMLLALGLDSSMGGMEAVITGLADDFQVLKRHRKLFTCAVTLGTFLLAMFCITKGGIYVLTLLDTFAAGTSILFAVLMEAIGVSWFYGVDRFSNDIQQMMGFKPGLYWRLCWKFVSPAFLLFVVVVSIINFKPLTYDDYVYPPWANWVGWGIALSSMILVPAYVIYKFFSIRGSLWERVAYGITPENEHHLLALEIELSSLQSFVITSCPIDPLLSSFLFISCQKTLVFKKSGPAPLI

[2] = target: T2, 5-HT-uptake (reuptake of serotonine in synaptosomes) (Rattus norvegicus, UniProt P31652); test: Inhibition of serotonine (5-HT) reuptake in synaptosomes; format: biochemical
T2 construct: in synaptosomes as described in WO 97/16451; from tissue
T2 sequence (P31652 whole entry): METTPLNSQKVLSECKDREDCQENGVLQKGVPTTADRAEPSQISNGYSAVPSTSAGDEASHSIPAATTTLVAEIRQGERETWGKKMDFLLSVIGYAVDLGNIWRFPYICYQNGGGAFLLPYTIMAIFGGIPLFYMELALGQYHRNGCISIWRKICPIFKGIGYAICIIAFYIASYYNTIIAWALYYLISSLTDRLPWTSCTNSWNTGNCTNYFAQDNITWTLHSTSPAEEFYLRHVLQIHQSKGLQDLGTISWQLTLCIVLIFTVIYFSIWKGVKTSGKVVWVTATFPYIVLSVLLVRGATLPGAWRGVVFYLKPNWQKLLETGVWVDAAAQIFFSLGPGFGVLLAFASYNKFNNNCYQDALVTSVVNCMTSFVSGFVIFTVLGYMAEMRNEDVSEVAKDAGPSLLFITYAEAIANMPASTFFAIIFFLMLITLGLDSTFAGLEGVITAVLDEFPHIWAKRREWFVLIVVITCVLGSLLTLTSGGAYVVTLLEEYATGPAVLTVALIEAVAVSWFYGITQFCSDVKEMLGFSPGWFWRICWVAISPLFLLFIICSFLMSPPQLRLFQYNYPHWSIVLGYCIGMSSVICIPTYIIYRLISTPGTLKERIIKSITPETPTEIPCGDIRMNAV

[3] = target: T3, DA-uptake (reuptake of dopamine in synaptosomes) (Rattus norvegicus, UniProt P23977); test: Inhibition of dopamine (DA) reuptake in synaptosomes; format: biochemical
T3 construct: in synaptosomes as described in WO 97/16451; from tissue
T3 sequence (P23977 whole entry): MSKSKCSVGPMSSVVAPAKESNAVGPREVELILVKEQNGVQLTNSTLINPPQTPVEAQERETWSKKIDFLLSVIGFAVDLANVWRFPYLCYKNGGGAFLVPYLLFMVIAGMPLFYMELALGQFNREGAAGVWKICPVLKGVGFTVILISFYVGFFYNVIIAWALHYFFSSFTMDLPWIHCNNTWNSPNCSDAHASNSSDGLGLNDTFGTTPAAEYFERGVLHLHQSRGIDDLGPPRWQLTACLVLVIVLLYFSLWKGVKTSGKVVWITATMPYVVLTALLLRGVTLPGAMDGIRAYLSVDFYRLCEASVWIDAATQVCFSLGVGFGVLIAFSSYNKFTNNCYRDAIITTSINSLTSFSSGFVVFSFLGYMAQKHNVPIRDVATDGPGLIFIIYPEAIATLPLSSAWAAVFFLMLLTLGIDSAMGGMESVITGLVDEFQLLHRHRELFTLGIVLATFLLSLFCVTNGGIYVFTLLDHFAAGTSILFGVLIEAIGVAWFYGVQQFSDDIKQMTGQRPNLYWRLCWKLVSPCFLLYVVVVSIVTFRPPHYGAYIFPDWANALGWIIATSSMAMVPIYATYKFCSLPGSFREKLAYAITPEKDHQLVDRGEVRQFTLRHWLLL

[4] = synaptosomes, 3H-NA, read-out: NA-uptake IC50
[5] = synaptosomes, 3H-5-HT, read-out: 5-HT-uptake IC50
[6] = synaptosomes, 3H-DA, read-out: DA-uptake IC50

| SMILES | IC50 [1, 4] [nM] | IC50 [2, 5] [nM] | IC50 [3, 6] [nM] | melting point [°C] | also measured |
| --- | --- | --- | --- | --- | --- |
| CN1C2C=C(c3ccc4ccccc4c3)CC1CC2 (single isomer, unassigned; (-)) [1st compound of method E, (−)-8-Methyl-3-(naphthalen-2-yl)-8-aza-bicyclo[3.2.1]oct-2-ene] | 18 | 0.23 | 34 |  |  |
| C1=C(c2ccc3ccccc3c2)CC2CCC1N2 (single isomer, unassigned; (+)) [1st compound of method D, (+)-3-Naphthalen-2-yl-8-aza-bicyclo[3.2.1]oct-2-ene] |  |  |  |  | IC50 [1]: 13 nM; IC50 [2]: 0.34 nM; IC50 [3]: 58 nM |
| CN1C2C=C(c3ccc4ccccc4c3)CC1CC2 (single isomer, unassigned; (-)) (as salt: hydrochloric acid salt) [1st compound of method E, (−)-8-Methyl-3-(naphthalen-2-yl)-8-aza-bicyclo[3.2.1]oct-2-ene] |  |  |  | 265 |  |
| C1=C(c2ccc3ccccc3c2)CC2CCC1N2 (single isomer, unassigned; (+)) (as salt: tartaric acid salt) [1st compound of method D, (+)-3-Naphthalen-2-yl-8-aza-bicyclo[3.2.1]oct-2-ene] |  |  |  | 183 to 189 |  |
| Clc1ccc(C2=CC3CCC(C2)N3)cc1 (single isomer, unassigned; (+)) [1st compound of method A, (+)-3-(4-Chlorophenyl)-8-H-8-aza-bicyclo[3.2.1]oct-2-ene] | 28 | 10 | 260 |  |  |
